Test results reported in patent US20220395549A1, “COMPOSITIONS OF THE OLEA EUROPAEA V. SYLVESTRIS WITH ANTIMICROBIAL EFFICACY” (TAPROGGE GMBH, priority 2019, published 2022).

How the values were obtained:
test microorganisms = settings: cited from earlier work
S. aureus ATCC 6538 = experiment: quantitative suspension assay of mono-substances; assay type: cell-based, Staphylococcus aureus; settings: initial cell load 2.0 × 10^5 CFU/ml
Procedure: A stock solution was prepared by adding 0.1 ml methanol to 10.48 mg of hydroxytyrosol. After dissolving of the compound, the solution was quantitatively transferred into 4.9 ml water for injection (WFI), effective concentration of hydroxytyrosol: 2.0 mg/ml.
Using the stock solution, five (5) concentrations of hydroxytyrosol in a geometric series of 2 mg hydroxytyrosol/ml to 0.125 mg hydroxytyrosol/ml were tested in a quantitative suspension assay.
2 ml of the stock solution and the dilutions (V1 to V4), respectively, and a methanol-solution of 2% as a positive control were inoculated with 0.1 ml of a test suspension of S. aureus ATCC 6538, adjusted to about 2.0×10^5 CFU/0.1 ml, resulting in about 100,000 CFU/ml in the individual assays.
Samples (0.1 ml) were then taken at t 0, 12, 30, and 60 minutes as well as t 24 48, and 72 hours after inoculation and culturing at between 20-25° C., and were diluted with 0.9 ml of 0.9% NaCl solution. The samples were plated on blood agar plates, and incubated up to 5 days at between 30-35° C.
A stock solution was prepared at a concentration of 2 mg/ml of oleocanthal. The compound was dissolved by in ethanol (99.8%) and WFI was added.
Using the stock solution, concentrations of oleocanthal in a geometric series of 1 mg oleocanthal/ml to 0.125 mg oleocanthal/ml were tested in a quantitative suspension assay.
2 ml of the stock solution and the dilutions (V1 to V4), respectively, and a ethanol-solution of 2.85% as a positive control were inoculated with 0.055 ml of a test suspension of S. aureus ATCC 6538, adjusted to about 3.6×10^5 CFU/0.1 ml, resulting in about 99,000 CFU/ml in the individual assays.
A stock solution was prepared at a concentration of 1 mg/ml of oleacin. The compound was dissolved by in ethanol (99.8%) and WFI was added.
Using the stock solution, concentrations of oleacin at 0.25 mg oleacin/ml and 0.125 mg oleacin/ml were tested in a quantitative suspension assay.
2 ml of the stock solution and the dilutions (V1 and V2), respectively, and a ethanol-solution of 0.44% as a positive control were inoculated with 0.055 ml of a test suspension of S. aureus ATCC 6538, adjusted to about 3.5×10^5 CFU/0.1 ml, resulting in about 99,000 CFU/ml in the individual assays.
A stock solution was prepared by adding 0.1 ml chloroform to 25 mg of uvaol. After dissolving of the compound, the solution was quantitatively transferred into 12.4 ml water for injection (WFI), effective concentration of uvaol: 2.0 mg/ml.
Using the stock solution, five (5) concentrations of uvaol in a geometric series of 2 mg uvaol/ml to 0.125 mg uvaol/ml were tested in a quantitative suspension assay.
2 ml of the stock solution and the dilutions (V1 to V4), respectively, and a chloroform-solution of 0.8% as a positive control were inoculated with 0.1 ml of a test suspension of S. aureus ATCC 6538, adjusted to about 2.0×10^5 CFU/0.1 ml, resulting in about 100,000 CFU/ml in the individual assays.
A stock solution was prepared by adding 0.1 ml chloroform to 10.45 mg of erythrodiol. After dissolving of the compound, the solution was quantitatively transferred into 4.9 ml water for injection (WFI), effective concentration of erythrodiol: 2.0 mg/ml.
2 ml of the stock solution and the dilutions (V1 to V4), respectively, and a chloroform-solution of 2% as a positive control were inoculated with 0.1 ml of a test suspension of S. aureus ATCC 6538, adjusted to about 3.6×10^5 CFU/0.1 ml, resulting in about 100.000 CFU/ml in the individual assays.

**Q.** Which “antimicrobial activities of phenolic compounds” value (test microorganisms) does the source give for `COc1cc(C(=O)O)cc(OC)c1O` [syringic acid] here?
**A.** Its value is “ineffective”.

**Q.** With `C[C@H]1[C@H](C)CC[C@]2(CO)CC[C@]3(C)C(=CC[C@@H]4[C@@]5(C)CC[C@H](O)C(C)(C)[C@@H]5CC[C@]43C)[C@H]12` [uvaol] as the molecule, how does the “Number of CFUs” value (S. aureus ATCC 6538; 0.125 Uva/ml, t 0 min) read?
**A.** The value was 6.3 × 10^4 CFU/ml.

**Q.** What about the “Number of CFUs” value (S. aureus ATCC 6538; 0.125 Uva/ml, t 12 min) of the same molecule?
**A.** The value was 5.7 × 10^4 CFU/ml.

**Q.** And the “Number of CFUs” value (S. aureus ATCC 6538; 0.125 Uva/ml, t 30 min)?
**A.** The value was 7.6 × 10^4 CFU/ml.

**Q.** And the “Number of CFUs” value (S. aureus ATCC 6538; 0.125 Uva/ml, t 60 min)?
**A.** The value was 6.6 × 10^4 CFU/ml.

**Q.** What about the “Number of CFUs” value (S. aureus ATCC 6538; 0.125 Uva/ml, t 24 h) of the same molecule?
**A.** Its value is 4.7 × 10^3 CFU/ml.

**Q.** What about the “Number of CFUs” value (S. aureus ATCC 6538; 0.125 Uva/ml, t 48 h) of the same molecule?
**A.** The value was 4.2 × 10^3 CFU/ml.

**Q.** And the “Number of CFUs” value (S. aureus ATCC 6538; 0.125 Uva/ml, t 72 h)?
**A.** The value was 8.2 × 10^2 CFU/ml.

**Q.** And the “Number of CFUs” value (S. aureus ATCC 6538; 0.25 Uva/ml, t 0 min)?
**A.** Its value is 5.3 × 10^4 CFU/ml.

**Q.** What about the “Number of CFUs” value (S. aureus ATCC 6538; 0.25 Uva/ml, t 12 min) of the same molecule?
**A.** Its value is 8.1 × 10^4 CFU/ml.

**Q.** And the “Number of CFUs” value (S. aureus ATCC 6538; 0.25 Uva/ml, t 30 min)?
**A.** Its value is 5.3 × 10^4 CFU/ml.

**Q.** What about the “Number of CFUs” value (S. aureus ATCC 6538; 0.25 Uva/ml, t 60 min) of the same molecule?
**A.** Its value is 5.7 × 10^4 CFU/ml.

**Q.** What about the “Number of CFUs” value (S. aureus ATCC 6538; 0.25 Uva/ml, t 24 h) of the same molecule?
**A.** The value was <100 CFU/ml.

**Q.** And the “Number of CFUs” value (S. aureus ATCC 6538; 0.25 Uva/ml, t 48 h)?
**A.** Its value is <100 CFU/ml.

**Q.** What about the “Number of CFUs” value (S. aureus ATCC 6538; 0.25 Uva/ml, t 72 h) of the same molecule?
**A.** The value was <100 CFU/ml.

**Q.** What about the “Number of CFUs” value (S. aureus ATCC 6538; 0.5 Uva/ml, t 0 min) of the same molecule?
**A.** The value was 7.0 × 10^4 CFU/ml.

**Q.** What about the “Number of CFUs” value (S. aureus ATCC 6538; 0.5 Uva/ml, t 12 min) of the same molecule?
**A.** Its value is 7.8 × 10^4 CFU/ml.

**Q.** And the “Number of CFUs” value (S. aureus ATCC 6538; 0.5 Uva/ml, t 30 min)?
**A.** Its value is 7.6 × 10^4 CFU/ml.

**Q.** And the “Number of CFUs” value (S. aureus ATCC 6538; 0.5 Uva/ml, t 60 min)?
**A.** Its value is 5.7 × 10^4 CFU/ml.

**Q.** And the “Number of CFUs” value (S. aureus ATCC 6538; 0.5 Uva/ml, t 24 h)?
**A.** The value was <100 CFU/ml.

**Q.** What about the “Number of CFUs” value (S. aureus ATCC 6538; 0.5 Uva/ml, t 48 h) of the same molecule?
**A.** The value was <100 CFU/ml.

**Q.** And the “Number of CFUs” value (S. aureus ATCC 6538; 0.5 Uva/ml, t 72 h)?
**A.** The value was <100 CFU/ml.

**Q.** What about the “Number of CFUs” value (S. aureus ATCC 6538; 1.0 Uva/ml, t 0 min) of the same molecule?
**A.** The value was 7.8 × 10^4 CFU/ml.

**Q.** What about the “Number of CFUs” value (S. aureus ATCC 6538; 1.0 Uva/ml, t 12 min) of the same molecule?
**A.** The value was 7.8 × 10^4 CFU/ml.

**Q.** And the “Number of CFUs” value (S. aureus ATCC 6538; 1.0 Uva/ml, t 30 min)?
**A.** Its value is 7.4 × 10^4 CFU/ml.

**Q.** What about the “Number of CFUs” value (S. aureus ATCC 6538; 1.0 Uva/ml, t 60 min) of the same molecule?
**A.** The value was 5.9 × 10^4 CFU/ml.

**Q.** And the “Number of CFUs” value (S. aureus ATCC 6538; 1.0 Uva/ml, t 24 h)?
**A.** The value was <100 CFU/ml.

**Q.** And the “Number of CFUs” value (S. aureus ATCC 6538; 1.0 Uva/ml, t 48 h)?
**A.** Its value is <100 CFU/ml.

**Q.** What about the “Number of CFUs” value (S. aureus ATCC 6538; 1.0 Uva/ml, t 72 h) of the same molecule?
**A.** Its value is <100 CFU/ml.

**Q.** And the “Number of CFUs” value (S. aureus ATCC 6538; 2.0 Uva/ml, t 0 min)?
**A.** Its value is 7.2 × 10^4 CFU/ml.

**Q.** And the “Number of CFUs” value (S. aureus ATCC 6538; 2.0 Uva/ml, t 12 min)?
**A.** Its value is 5.9 × 10^4 CFU/ml.

**Q.** What about the “Number of CFUs” value (S. aureus ATCC 6538; 2.0 Uva/ml, t 30 min) of the same molecule?
**A.** Its value is 7.0 × 10^4 CFU/ml.

**Q.** And the “Number of CFUs” value (S. aureus ATCC 6538; 2.0 Uva/ml, t 60 min)?
**A.** Its value is 7.0 × 10^4 CFU/ml.

**Q.** And the “Number of CFUs” value (S. aureus ATCC 6538; 2.0 Uva/ml, t 24 h)?
**A.** The value was <100 CFU/ml.

**Q.** And the “Number of CFUs” value (S. aureus ATCC 6538; 2.0 Uva/ml, t 48 h)?
**A.** Its value is <100 CFU/ml.

**Q.** And the “Number of CFUs” value (S. aureus ATCC 6538; 2.0 Uva/ml, t 72 h)?
**A.** Its value is <100 CFU/ml.
